We go through 22 compounds from ChEMBL document CHEMBL3091409, “Potent P2Y1 urea antagonists bearing various cyclic amine scaffolds” (Bioorg Med Chem Lett, 2013).

The nature of series [1]: Metabolic stability in rat liver microsomes assessed as compound remaining after 10 mins. Type of series: ADME. To be noted: read-out: Stability.
Series [2] concerns the target D(2) dopamine receptor (Homo sapiens) (UniProt P14416). The series can be described thus: Inhibition of D2 receptor (unknown origin). The settings on record: concentration not given here.
Series [3] in a line: Oral bioavailability in rat at 5 mg/kg. Format: ADME, organism-based. The settings on record: in vivo.
Series [4] addresses 5-hydroxytryptamine receptor 2A (Homo sapiens) (UniProt P28223). The series can be described thus: Inhibition of 5-HT2A receptor (unknown origin). To be noted: concentration not given here.
The target in series [5] is Voltage-gated inwardly rectifying potassium channel KCNH2 (Homo sapiens, UniProt Q12809). Nature of the series: Inhibition of human ERG flux.
Voltage-gated inwardly rectifying potassium channel KCNH2, sequence (Q12809 whole entry): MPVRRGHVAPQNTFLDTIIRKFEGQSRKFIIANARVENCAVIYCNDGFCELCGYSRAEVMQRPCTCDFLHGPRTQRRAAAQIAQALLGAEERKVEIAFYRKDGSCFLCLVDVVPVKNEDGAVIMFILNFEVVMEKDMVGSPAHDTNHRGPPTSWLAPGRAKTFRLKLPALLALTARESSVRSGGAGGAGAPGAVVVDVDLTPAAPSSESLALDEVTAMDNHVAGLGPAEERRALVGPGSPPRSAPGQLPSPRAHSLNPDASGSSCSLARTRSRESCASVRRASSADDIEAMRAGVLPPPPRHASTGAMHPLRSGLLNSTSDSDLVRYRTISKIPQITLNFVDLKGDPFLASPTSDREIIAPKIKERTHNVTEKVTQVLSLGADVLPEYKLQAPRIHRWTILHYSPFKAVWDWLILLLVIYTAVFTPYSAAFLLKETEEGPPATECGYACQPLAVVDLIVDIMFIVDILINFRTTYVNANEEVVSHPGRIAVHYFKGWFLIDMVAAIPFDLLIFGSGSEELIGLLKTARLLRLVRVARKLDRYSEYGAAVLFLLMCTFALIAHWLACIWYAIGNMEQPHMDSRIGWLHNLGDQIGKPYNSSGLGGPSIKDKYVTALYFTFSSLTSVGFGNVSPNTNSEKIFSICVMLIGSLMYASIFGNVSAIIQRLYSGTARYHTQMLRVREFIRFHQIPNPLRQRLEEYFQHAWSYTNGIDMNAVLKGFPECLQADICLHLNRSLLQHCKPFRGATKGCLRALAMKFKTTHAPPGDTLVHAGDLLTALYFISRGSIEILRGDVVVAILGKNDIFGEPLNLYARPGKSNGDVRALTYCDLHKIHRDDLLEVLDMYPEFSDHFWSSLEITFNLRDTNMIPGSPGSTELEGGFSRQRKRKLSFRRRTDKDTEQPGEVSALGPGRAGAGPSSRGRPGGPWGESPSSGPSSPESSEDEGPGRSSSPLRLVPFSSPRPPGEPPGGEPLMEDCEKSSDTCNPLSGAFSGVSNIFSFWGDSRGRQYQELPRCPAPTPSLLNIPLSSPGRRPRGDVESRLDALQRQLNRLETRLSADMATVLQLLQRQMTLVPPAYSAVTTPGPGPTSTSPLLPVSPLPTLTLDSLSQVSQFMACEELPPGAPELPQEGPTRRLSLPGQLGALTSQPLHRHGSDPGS
Series [6] in a line: Permeability of the compound by PAMPA. Format: ADME. To be noted: read-out: permeability. For orientation: PAMPA measures passive passage across an artificial lipid membrane.
The target in series [7] is Sodium-dependent noradrenaline transporter (Homo sapiens) (UniProt P23975). Nature of the series: Inhibition of NET (unknown origin). To be noted: concentration not given here.
Sodium-dependent noradrenaline transporter (Homo sapiens), sequence (P23975 whole entry): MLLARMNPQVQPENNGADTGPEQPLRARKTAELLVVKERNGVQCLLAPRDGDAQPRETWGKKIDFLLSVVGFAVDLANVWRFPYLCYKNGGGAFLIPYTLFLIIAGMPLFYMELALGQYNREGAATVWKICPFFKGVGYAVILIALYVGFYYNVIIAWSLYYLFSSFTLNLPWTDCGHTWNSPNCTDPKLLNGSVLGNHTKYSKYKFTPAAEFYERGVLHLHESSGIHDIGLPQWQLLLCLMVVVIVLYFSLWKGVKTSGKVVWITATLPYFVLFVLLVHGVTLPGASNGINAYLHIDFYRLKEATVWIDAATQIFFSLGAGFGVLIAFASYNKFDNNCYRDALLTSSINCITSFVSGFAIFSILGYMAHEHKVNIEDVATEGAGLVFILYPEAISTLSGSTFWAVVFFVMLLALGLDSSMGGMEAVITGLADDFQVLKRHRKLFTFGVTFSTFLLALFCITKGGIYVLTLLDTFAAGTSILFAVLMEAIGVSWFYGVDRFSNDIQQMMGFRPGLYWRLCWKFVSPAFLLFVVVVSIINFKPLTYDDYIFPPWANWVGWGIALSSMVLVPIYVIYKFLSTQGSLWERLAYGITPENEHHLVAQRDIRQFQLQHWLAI
Series [8] is described as follows: Aqueous solubility of the compound in partially crystalline form in […] phosphate buffer at pH 6.5. Format: physicochemical.
A short description of series [9]: Volume of distribution at steady state in rat at 2 mg/kg, iv and 5 mg/kg, po. Format: ADME, organism-based. To be noted: in vivo, read-out: Vdss.
Series [10] is described as follows: Plasma protein binding in human plasma. Format: ADME, cell-free. To be noted: read-out: PPB (converted).
Series [11] can be described thus: Clearance in rat at 2 mg/kg, iv and 5 mg/kg, po. Type of series: ADME, organism-based. To be noted: in vivo.
Series [12] can be described thus: Half life in rat at 2 mg/kg, iv and 5 mg/kg, po. Type of series: ADME, organism-based. To be noted: in vivo.
In series [13] the target is P2Y purinoceptor 1 (Homo sapiens, UniProt P47900). Nature of the series: Displacement of [beta-33P]-2MeS-ADP from human P2Y1 receptor transfected in HEK293 cells after 1 hr by scintillation counting method. Type of series: cell-based.
P2Y purinoceptor 1, sequence (P47900 whole entry): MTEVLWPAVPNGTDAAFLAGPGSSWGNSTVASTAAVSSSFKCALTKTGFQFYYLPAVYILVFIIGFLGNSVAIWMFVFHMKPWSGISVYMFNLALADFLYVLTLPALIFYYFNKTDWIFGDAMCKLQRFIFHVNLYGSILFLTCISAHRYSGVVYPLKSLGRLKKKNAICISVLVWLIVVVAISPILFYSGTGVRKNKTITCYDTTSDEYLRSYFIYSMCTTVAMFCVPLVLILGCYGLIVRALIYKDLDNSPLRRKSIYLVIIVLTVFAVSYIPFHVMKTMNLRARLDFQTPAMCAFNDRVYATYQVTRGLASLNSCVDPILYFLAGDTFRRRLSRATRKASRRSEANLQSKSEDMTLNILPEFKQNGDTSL
Series [14] deals with Platelet. The series can be described thus: Inhibition of ADP-induced platelet aggregation in human platelet rich plasma. Format: functional.
Series [15] in a line: Aqueous solubility of the compound in crystalline form in […] phosphate buffer at pH 6.5. Format: physicochemical.
Series [16] is described as follows: Aqueous solubility of the compound in amorphous form in […] phosphate buffer at pH 6.5. Format: physicochemical.
The nature of series [17]: Permeability from apical to basolateral side of human Caco2 cells. Type of series: ADME, cell-based. To be noted: Caco-2, read-out: permeability.

In brackets after ≈: the same amount, converted by molar mass.

5-hydroxytryptamine receptor 2A (Homo sapiens), sequence (P28223 whole entry): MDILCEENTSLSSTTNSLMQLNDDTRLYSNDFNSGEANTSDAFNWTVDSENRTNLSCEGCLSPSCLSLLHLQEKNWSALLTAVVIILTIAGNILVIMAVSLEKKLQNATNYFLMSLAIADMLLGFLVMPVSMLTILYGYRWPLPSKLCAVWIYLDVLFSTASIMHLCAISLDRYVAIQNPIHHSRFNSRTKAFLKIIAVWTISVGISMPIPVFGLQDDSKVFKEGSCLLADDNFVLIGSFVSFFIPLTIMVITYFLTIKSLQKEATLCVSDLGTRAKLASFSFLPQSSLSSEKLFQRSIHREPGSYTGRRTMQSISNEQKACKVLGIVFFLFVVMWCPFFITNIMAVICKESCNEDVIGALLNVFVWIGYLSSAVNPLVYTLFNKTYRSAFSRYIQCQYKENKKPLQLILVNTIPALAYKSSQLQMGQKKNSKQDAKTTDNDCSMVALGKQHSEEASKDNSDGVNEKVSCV
D(2) dopamine receptor (Homo sapiens), sequence (P14416 whole entry): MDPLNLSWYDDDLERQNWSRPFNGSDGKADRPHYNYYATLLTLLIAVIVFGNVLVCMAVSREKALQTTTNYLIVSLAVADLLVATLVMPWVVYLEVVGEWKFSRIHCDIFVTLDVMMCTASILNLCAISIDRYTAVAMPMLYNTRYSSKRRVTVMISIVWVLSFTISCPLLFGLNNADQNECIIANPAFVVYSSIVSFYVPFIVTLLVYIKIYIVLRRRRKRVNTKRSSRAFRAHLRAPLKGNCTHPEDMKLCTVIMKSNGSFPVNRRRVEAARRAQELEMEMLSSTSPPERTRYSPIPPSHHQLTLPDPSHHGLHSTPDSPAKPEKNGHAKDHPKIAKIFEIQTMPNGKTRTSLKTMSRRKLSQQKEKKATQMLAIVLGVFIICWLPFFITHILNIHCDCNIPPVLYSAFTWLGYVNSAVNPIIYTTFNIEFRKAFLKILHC

Consider `CC(C)(C)CN1CCC(c2ccccc2Oc2ncccc2NC(=O)Nc2ccc(OC(F)(F)F)cc2)CC1`, for which the remaining at 10 min in series [1] worked out at 96%. The inhibition in series [2], in [4] and in series [7] was over 50% each time. The bioavailability (in general, dose-corrected exposure relative to a reference, in per cent) in [3] was 89%. The results for the IC50 in series [5] and in [14] were 4.6 µM and 2.4 µM, respectively. Besides, the Papp in [6] is 28.6 ×10⁻⁶ cm/s. Besides, in series [8], the solubility (in general, the dissolved amount per volume that the medium holds) was found to be 105 µg/mL (≈ 194 µM). Moreover, the Vd in series [9] came out at 14 L/kg. The fraction unbound in series [10] is 0.001. This compound also gave a clearance in [11] of 18 mL/min/kg. For the same compound, the half-life (in general, how long it takes for the measured level to halve) in series [12] is 11 h. Moreover, the Ki – broadly, the dissociation constant of the complex between target and ligand, obtained from inhibition or displacement – in series [13] worked out at 0.016 µM.
As to `CC(C)(C)CN1CCc2c(cccc2Oc2ncccc2NC(=O)Nc2ccc(OC(F)(F)F)cc2)C1`, the remaining at 10 min in series [1] is 27%. For the same compound, the concentration in solution in series [15] (solubility) came to 3 µg/mL (≈ 5.83 µM). For the same compound, in series [13], the affinity corresponds to a Ki of 0.011 µM. Further, the IC50 (usually the concentration that inhibits the measured activity by half) in [14] is 3.1 µM.
`O=C(Nc1ccc(OC(F)(F)F)cc1)Nc1cccnc1Oc1cccc2c1CCN(Cc1ccccc1)C2` gave an inhibitory constant (Ki) in [13] of 0.055 µM.
In the case of `O=C(Nc1ccc(OC(F)(F)F)cc1)Nc1cccnc1Oc1cccc2c1CCNC2`, in series [13], the Ki worked out at 3 µM. Against the preceding compound, the Ki is about 55-fold higher.
Still for that read-out and setting: under `O=C(Nc1ccc(OC(F)(F)F)cc1)Nc1cccnc1Oc1cccc2c1CCN(Cc1ccncc1)C2` stands 1.04 µM; under `O=C(Nc1ccc(OC(F)(F)F)cc1)Nc1cccnc1Oc1cccc2c1CCN(CCc1ccccc1)C2`, 0.29 µM; under `CC(C)N1CCc2c(cccc2Oc2ncccc2NC(=O)Nc2ccc(OC(F)(F)F)cc2)C1`, 0.56 µM.
For `CC(C)(C)CN1Cc2cccc(Oc3ncccc3NC(=O)Nc3ccc(OC(F)(F)F)cc3)c2C1`, the Ki in [13] was determined as 0.029 µM. The compound further showed a concentration for half-maximal inhibition (IC50) in series [14] of over 10 µM.
For `CC(C)CN1Cc2cccc(Oc3ncccc3NC(=O)Nc3ccc(OC(F)(F)F)cc3)c2C1`, the Ki in [13] turned out to be 0.068 µM. In [14], this compound showed an IC50 of over 10 µM.
In [13], `O=C(Nc1ccc(OC(F)(F)F)cc1)Nc1cccnc1Oc1cccc2c1CCN(Cc1ccccc1O)C2` returned an inhibition constant Ki of 0.26 µM.
Same read-out and setting: for `O=C(Nc1ccc(OC(F)(F)F)cc1)Nc1cccnc1Oc1cccc2c1CCN(Cc1ccc(O)cc1)C2` the value was 3.4 µM; for `CCCN1CCc2c(cccc2Oc2ncccc2NC(=O)Nc2ccc(OC(F)(F)F)cc2)C1`, 0.62 µM.
Consider `CN1Cc2cccc(Oc3ncccc3NC(=O)Nc3ccc(OC(F)(F)F)cc3)c2C1C(C)(C)C` (stereo not given), for which the remaining at 10 min in [1] was determined as 6%. This compound also came in with a solubility in series [16] of 270 µg/mL (≈ 539 µM). In addition, the concentration for half-maximal inhibition (IC50) turned out to be 7.2 µM in series [5] and 1.2 µM in [14]. Moreover, in series [6], the Papp was 78.4 ×10⁻⁶ cm/s. Further, the Papp A→B in series [17] was under 1.5 ×10⁻⁶ cm/s. The fraction unbound in series [10] was 0.003. Besides, in series [13], the affinity, expressed as Ki, was 0.057 µM.
Take `O=C(Nc1ccc(OC(F)(F)F)cc1)Nc1cccnc1Oc1cccc2c1CCN(Cc1ccccn1)C2`: the Ki in series [13] amounted to 1.1 µM. That is a single-digit micromolar value.
On the same count and under the same terms, for `O=C(Nc1ccc(OC(F)(F)F)cc1)Nc1cccnc1Oc1cccc2c1CCN(Cc1cccnc1)C2` the value was 1.2 µM; for `CC(C)(C)CCN1CCc2c(cccc2Oc2ncccc2NC(=O)Nc2ccc(OC(F)(F)F)cc2)C1`, 0.19 µM.
Same read-out and setting: for `CN1Cc2cccc(Oc3ncccc3NC(=O)Nc3ccc(OC(F)(F)F)cc3)c2C1` the value was 3.7 µM; for `O=C(Nc1ccc(OC(F)(F)F)cc1)Nc1cccnc1Oc1cccc2c1CCN(Cc1cccc(O)c1)C2`, 2.2 µM.
In the case of `CC(C)CN1CCc2c(cccc2Oc2ncccc2NC(=O)Nc2ccc(OC(F)(F)F)cc2)C1`, affinity in [13] was put at a Ki of 0.06 µM.
For `O=C(Nc1ccc(OC(F)(F)F)cc1)Nc1cccnc1Oc1ccccc1C1CCN(Cc2ccccc2)CC1`, affinity in series [13] was put at a Ki of 0.098 µM. Also, in [14], the half-inhibitory concentration (IC50) came to 12.7 µM.
For the compound `CC(C)CN1CCC(c2ccccc2Oc2ncccc2NC(=O)Nc2ccc(OC(F)(F)F)cc2)CC1`, the results for the half-maximal inhibitory concentration (IC50) in [5] and in [14] were 6 µM and 7.6 µM, respectively. For the same compound, the affinity in series [13], expressed as Ki, was 0.15 µM.
Compound `CCN1CCc2c(cccc2Oc2ncccc2NC(=O)Nc2ccc(OC(F)(F)F)cc2)C1` returned a Ki in [13] of 1.7 µM.
